Among the data in ChEMBL document CHEMBL1833857, “Histone deacetylase activators: N-acetylthioureas serve as highly potent and isozyme selective activators for human histone deacetylase-8 on a fluorescent substrate” (Bioorg Med Chem Lett, 2011) are inhibition, Activity and fold change (FC) values, retold here.

A word on the inhibition: it is the share of the control response that was lost under treatment.

Structures are written as SMILES. The source made the active and inactive calls. The calls are words filed in the database; no cut-off is given here.

The target in experiment [1] is Histone deacetylase 4 (Homo sapiens) (UniProt P56524). In words: Inhibition of HDAC4 using trifluoroacetyl-lysine containing fluorogenic substrate at 100 uM by spectrofluorometry.
The target is the same in experiment [2]. The experiment can be described thus: Activation of HDAC4 using trifluoroacetyl-lysine containing fluorogenic substrate at 10 uM by spectrofluorometry.
The target of experiment [3] is T1, Polyamine deacetylase HDAC10 (Homo sapiens) (UniProt Q969S8).
T1 sequence (whole entry): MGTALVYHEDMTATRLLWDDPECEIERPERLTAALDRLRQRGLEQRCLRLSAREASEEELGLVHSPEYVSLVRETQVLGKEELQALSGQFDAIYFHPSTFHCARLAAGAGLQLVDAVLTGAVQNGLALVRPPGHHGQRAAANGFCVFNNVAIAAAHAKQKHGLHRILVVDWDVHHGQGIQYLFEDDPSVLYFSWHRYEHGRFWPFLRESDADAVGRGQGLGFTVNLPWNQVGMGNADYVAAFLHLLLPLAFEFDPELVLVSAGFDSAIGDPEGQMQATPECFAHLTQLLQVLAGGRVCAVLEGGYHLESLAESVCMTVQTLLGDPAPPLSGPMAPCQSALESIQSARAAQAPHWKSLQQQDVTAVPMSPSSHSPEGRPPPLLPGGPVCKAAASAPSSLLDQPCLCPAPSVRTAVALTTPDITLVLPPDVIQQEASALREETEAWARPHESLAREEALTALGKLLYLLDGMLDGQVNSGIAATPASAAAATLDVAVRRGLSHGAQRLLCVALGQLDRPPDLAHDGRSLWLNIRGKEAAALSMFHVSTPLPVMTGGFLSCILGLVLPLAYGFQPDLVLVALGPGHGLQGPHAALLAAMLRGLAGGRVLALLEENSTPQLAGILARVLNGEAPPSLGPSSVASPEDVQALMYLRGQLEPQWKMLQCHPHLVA
In words: Inhibition of HDAC10 using Fluor-de-Lys as substrate at 100 uM by spectrofluorometry.

The target of experiment [4] is Histone deacetylase 1 (Homo sapiens) (UniProt Q13547). In words: Activation of HDAC1 using Fluor-de-Lys as substrate at 100 uM by spectrofluorometry.
The target is the same in experiment [5]. The experiment can be described thus: Activation of HDAC1 using Fluor-de-Lys as substrate at 10 uM by spectrofluorometry.
For experiment [6], the target named is T2, Histone deacetylase 11 (Homo sapiens) (UniProt Q96DB2).
T2 sequence (whole entry): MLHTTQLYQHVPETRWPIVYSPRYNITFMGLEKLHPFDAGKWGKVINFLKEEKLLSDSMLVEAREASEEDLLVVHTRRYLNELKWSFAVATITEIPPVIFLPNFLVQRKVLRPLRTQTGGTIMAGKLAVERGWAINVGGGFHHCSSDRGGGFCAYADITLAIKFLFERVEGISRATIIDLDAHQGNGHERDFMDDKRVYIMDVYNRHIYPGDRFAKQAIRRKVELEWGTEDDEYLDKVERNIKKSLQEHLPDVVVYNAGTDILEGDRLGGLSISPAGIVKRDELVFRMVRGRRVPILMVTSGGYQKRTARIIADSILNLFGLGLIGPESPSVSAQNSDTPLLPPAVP
The experiment can be described thus: Inhibition of HDAC11 using Fluor-de-Lys as substrate at 100 uM by spectrofluorometry.

Experiment [7] deals with Histone deacetylase 2 (Homo sapiens) (UniProt Q92769). In words: Inhibition of HDAC2 using Fluor-de-Lys as substrate at 100 uM by spectrofluorometry.
Experiment [8] deals with Histone deacetylase 3 (Homo sapiens) (UniProt O15379). The experiment can be described thus: Inhibition of HDAC3 using Fluor-de-Lys as substrate at 100 uM by spectrofluorometry.
Experiment [9] concerns the target Histone deacetylase 1 (Homo sapiens) (UniProt Q13547). The experiment can be described thus: Inhibition of HDAC1 using Fluor-de-Lys as substrate at 100 uM by spectrofluorometry.
Experiment [10] addresses T3, Protein deacetylase HDAC6 (Homo sapiens) (UniProt Q9UBN7).
T3 sequence (whole entry): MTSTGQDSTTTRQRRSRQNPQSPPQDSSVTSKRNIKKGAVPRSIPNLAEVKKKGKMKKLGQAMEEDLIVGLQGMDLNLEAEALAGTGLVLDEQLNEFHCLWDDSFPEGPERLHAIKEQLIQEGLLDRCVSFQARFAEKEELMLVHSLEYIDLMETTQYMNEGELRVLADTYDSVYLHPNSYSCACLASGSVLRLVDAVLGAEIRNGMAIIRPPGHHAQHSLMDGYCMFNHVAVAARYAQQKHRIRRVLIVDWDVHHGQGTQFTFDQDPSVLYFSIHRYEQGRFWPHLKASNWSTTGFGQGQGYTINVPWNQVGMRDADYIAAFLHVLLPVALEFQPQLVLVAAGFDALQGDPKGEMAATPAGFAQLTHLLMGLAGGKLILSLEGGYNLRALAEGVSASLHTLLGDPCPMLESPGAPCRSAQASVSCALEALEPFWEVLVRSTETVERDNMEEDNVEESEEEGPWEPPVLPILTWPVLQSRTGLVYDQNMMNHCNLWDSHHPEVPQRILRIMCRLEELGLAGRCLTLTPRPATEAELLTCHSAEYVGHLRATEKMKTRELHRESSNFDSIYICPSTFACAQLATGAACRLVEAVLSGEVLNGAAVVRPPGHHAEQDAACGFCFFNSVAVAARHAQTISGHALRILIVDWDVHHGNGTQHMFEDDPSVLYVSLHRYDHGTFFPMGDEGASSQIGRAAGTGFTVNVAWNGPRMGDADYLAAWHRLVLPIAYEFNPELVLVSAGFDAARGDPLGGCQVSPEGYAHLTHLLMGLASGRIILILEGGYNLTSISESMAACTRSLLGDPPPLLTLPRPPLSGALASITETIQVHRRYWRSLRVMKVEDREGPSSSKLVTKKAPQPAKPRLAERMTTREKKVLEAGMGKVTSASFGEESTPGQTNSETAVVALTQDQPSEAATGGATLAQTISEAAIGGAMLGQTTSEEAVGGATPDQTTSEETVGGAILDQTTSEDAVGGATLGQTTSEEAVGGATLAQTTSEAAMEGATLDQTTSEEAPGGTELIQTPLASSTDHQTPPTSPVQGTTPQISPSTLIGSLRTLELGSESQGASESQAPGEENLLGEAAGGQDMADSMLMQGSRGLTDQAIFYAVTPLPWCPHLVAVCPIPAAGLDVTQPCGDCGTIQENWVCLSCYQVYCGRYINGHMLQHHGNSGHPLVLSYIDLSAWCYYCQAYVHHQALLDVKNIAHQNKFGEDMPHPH
The experiment can be described thus: Inhibition of HDAC6 using Fluor-de-Lys as substrate at 100 uM by spectrofluorometry.

For experiment [11], the target named is Histone deacetylase 4 (Homo sapiens) (UniProt P56524). The experiment can be described thus: Activation of HDAC4 using trifluoroacetyl-lysine containing fluorogenic substrate at 100 uM by spectrofluorometry.
Experiment [12] addresses T4, Histone deacetylase 8 (Homo sapiens) (UniProt Q9BY41).
T4 sequence (whole entry): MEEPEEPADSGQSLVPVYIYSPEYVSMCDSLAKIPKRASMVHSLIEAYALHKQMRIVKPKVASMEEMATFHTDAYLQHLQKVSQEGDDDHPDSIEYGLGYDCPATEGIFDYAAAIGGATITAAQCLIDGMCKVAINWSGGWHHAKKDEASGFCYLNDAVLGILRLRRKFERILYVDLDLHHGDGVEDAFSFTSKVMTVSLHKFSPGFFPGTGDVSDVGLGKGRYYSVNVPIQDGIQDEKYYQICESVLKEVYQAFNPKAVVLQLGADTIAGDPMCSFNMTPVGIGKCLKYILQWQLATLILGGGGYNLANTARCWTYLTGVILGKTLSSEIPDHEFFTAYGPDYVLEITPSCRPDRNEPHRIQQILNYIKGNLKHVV
In words: Activation of recombinant human HDAC8 assessed as ratio of the initial rate of reaction in the absence and presence of compound using Fluor-de-Lys as substrate at 10 uM by spectrofluorometry.

Experiment [13] concerns the target Histone deacetylase 3 (Homo sapiens) (UniProt O15379). In words: Activation of HDAC3 using Fluor-de-Lys as substrate at 100 uM by spectrofluorometry.
For experiment [14] the target is unchanged. In words: Activation of HDAC3 using Fluor-de-Lys as substrate at 10 uM by spectrofluorometry.
Experiment [15] concerns the target T3, Protein deacetylase HDAC6 (Homo sapiens). In words: Activation of HDAC6 using Fluor-de-Lys as substrate at 100 uM by spectrofluorometry.
Experiment [16] shares this target. In words: Activation of HDAC6 using Fluor-de-Lys as substrate at 10 uM by spectrofluorometry.
For experiment [17], the target named is Histone deacetylase 2 (Homo sapiens) (UniProt Q92769). In words: Activation of HDAC2 using Fluor-de-Lys as substrate at 10 uM by spectrofluorometry.
The target is the same in experiment [18]. In words: Activation of HDAC2 using Fluor-de-Lys as substrate at 100 uM by spectrofluorometry.

Histone deacetylase 1 (Homo sapiens), sequence (Q13547 whole entry): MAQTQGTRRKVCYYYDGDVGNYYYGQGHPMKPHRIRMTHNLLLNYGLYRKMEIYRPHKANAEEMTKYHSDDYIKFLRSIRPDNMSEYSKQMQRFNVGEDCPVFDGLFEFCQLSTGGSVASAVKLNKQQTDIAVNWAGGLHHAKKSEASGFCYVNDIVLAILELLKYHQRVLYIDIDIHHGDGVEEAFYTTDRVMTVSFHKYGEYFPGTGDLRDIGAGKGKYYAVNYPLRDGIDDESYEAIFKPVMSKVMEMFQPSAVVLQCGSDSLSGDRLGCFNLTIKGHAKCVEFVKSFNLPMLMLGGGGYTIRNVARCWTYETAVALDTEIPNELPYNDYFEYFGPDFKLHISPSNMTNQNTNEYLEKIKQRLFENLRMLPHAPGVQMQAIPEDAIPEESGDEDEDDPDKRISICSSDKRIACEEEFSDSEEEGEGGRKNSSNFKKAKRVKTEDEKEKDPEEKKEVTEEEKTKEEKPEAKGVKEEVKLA
Histone deacetylase 2 (Homo sapiens), sequence (Q92769 whole entry): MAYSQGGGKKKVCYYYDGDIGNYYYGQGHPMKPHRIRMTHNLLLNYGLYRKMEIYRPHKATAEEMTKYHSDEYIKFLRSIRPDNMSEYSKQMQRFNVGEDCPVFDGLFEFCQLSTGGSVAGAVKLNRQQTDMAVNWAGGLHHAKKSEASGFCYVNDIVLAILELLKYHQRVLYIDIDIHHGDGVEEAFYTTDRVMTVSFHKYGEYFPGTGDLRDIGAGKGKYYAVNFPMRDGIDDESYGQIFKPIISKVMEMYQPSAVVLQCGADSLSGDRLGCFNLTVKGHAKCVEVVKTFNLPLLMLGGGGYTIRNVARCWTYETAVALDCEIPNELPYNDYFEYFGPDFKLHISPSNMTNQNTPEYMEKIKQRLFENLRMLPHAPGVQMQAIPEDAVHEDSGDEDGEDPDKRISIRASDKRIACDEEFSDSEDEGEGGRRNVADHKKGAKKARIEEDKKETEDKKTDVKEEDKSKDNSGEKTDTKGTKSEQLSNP
Histone deacetylase 4 (Homo sapiens), sequence (P56524 whole entry): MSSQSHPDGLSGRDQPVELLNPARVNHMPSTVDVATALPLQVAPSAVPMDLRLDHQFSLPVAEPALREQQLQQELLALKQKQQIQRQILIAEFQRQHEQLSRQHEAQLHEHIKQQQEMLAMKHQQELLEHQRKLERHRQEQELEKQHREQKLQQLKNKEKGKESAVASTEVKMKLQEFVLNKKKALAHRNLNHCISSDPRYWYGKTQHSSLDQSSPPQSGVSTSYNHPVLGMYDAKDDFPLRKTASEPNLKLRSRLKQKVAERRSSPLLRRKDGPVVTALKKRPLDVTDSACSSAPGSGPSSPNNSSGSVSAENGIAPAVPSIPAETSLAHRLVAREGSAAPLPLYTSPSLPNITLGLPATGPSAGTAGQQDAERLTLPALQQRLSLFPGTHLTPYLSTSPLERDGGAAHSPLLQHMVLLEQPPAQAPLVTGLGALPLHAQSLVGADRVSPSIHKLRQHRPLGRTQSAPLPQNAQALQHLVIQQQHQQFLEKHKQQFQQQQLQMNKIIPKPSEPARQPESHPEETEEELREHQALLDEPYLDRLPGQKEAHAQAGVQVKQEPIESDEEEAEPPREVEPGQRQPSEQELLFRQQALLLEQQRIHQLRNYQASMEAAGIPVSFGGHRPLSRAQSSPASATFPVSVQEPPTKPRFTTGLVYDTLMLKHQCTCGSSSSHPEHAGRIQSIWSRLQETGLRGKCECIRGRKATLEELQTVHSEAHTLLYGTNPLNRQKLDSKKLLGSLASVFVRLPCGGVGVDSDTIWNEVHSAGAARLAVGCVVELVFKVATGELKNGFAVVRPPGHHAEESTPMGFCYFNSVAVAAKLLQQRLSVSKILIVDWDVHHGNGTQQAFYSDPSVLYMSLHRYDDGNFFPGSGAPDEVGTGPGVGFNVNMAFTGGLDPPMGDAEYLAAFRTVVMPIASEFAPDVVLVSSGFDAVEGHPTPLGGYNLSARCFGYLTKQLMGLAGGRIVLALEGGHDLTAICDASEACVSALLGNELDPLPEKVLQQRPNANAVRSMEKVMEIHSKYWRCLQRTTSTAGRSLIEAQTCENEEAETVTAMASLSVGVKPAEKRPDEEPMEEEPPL
Histone deacetylase 3 (Homo sapiens), sequence (O15379 whole entry): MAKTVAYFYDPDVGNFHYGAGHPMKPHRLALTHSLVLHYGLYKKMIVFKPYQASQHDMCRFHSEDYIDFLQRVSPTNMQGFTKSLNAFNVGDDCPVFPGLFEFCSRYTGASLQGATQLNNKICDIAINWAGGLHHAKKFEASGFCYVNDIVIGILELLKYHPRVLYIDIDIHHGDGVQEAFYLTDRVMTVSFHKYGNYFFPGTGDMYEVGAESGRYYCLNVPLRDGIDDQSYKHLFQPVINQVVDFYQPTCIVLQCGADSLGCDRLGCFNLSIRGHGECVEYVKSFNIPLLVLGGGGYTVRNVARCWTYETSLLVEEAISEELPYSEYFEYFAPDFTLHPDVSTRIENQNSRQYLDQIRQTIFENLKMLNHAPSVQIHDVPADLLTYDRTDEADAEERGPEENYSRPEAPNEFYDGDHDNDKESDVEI

For the compound `O=C(NC(=S)NCc1cccs1)c1ccccc1`, the inhibition entry in [1] and in experiment [9] was “inactive” each time. Besides, the outcome in experiment [2], in [4], in experiment [5] and in [11] was inactive. The inhibition in [3] amounted to 47%; in experiment [6], 12%; in experiment [7], 9%; in experiment [8], 5%; in [10], 10%. Also, the fold change (FC) in experiment [12] turned out to be 3.

As to `COc1cc(NC(=S)NC(=O)c2ccccc2)cc(OC)c1`, the inhibition result in experiment [1] and in [9] was “inactive” in each case. For the same compound, the result in experiment [2], in [4], in experiment [5] and in [11] was inactive. The inhibition in experiment [3] was found to be 10%; in experiment [6], 10%; in experiment [7], 6%; in experiment [8] it was 5%; in experiment [10] it was 5%. The fold change (FC) in [12] came to 8.4.

Turning to `C[C@@H](NC(=S)NC(=O)c1ccccc1)c1ccccc1`, the inhibition result in experiment [1] was “inactive”. The outcome in experiment [2], in experiment [5] and in [11] was inactive. Moreover, the inhibition came to 5% in experiment [3]; 8% in experiment [6]; 6% in experiment [7]; 6% in experiment [8]; 45% in [10]. Besides, the Activity in [4] was determined as 4%. In addition, the fold change (FC) in experiment [12] stood at 1.5.

Regarding `O=C(NC(=S)NCc1ccc(-c2ccccc2)cc1)c1ccccc1`, the inhibition result in [1], in experiment [8], in experiment [9] and in experiment [10] was “inactive” in each case. Moreover, the outcome in [2], in experiment [4], in [5], in experiment [13], in [14] and in experiment [11] was inactive. Also, the outcome in experiment [15] and in [16] was inactive. For the same compound, the inhibition was 5% in [3], 10% in [6] and 10% in [7]. The fold change (FC) in experiment [12] worked out at 1.1.

`C[C@H](NC(=S)NC(=O)c1ccccc1)c1ccccc1`: the inhibition result in [1], in [8], in experiment [9] and in experiment [10] was “inactive” in each case. Besides, the outcome in [2], in [4], in [5], in experiment [13], in experiment [14] and in [11] was inactive. The result in [15] and in [16] was inactive. The inhibition in [3] is 10%; in [6] it was 10%; in experiment [7], 5%. In experiment [12], the fold change (FC) amounted to 4.5.

On to `O=C(NC(=S)NCc1cc(C(F)(F)F)cc(C(F)(F)F)c1)c1ccccc1`, for which the inhibition result in experiment [1], in experiment [7], in experiment [8] and in experiment [9] was “inactive” in each case. Also, the result in experiment [2], in experiment [4], in experiment [5], in experiment [17], in [13] and in experiment [18] was inactive. The result in experiment [14] and in experiment [11] was inactive. The inhibition in experiment [3], in experiment [6] and in experiment [10] was 10% throughout. Also, the fold change (FC) in experiment [12] stood at 1.1.
